Source: patent publication US12187709B2 (Genentech, Inc., priority 2021, dated 2025)

Experiments:
[1] = target: Human Cbl-b (residues 40-426) (Homo sapiens (Human), UniProt Q13191); experiment: Cbl-b SPR assay; type: binding; details: for Fold of selectivity: C-cbl SPR Kd vs Cbl-b SPR Kd; for Kd: SPR, 20° C.
Procedure, shortened: (§1)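 First, protein is captured to 1300-1500 RU. Then compound runs in single cycle kinetics, a blank plus 5 two-fold concentrations up to 500 nM (120 s contact, 50 μl/min, 450 s dissociation). Chaser injections (20 s, 30 μl/min) track occupancy, giving kd, which is fixed when fitting the titration.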

[2] = target: c-Cbl (residues 47-435) (Homo sapiens (Human), UniProt P22681); experiment: c-Cbl SPR assay; type: binding; details: 20° C.
Chain of c-Cbl (residues 47-435) (P22681 47-435): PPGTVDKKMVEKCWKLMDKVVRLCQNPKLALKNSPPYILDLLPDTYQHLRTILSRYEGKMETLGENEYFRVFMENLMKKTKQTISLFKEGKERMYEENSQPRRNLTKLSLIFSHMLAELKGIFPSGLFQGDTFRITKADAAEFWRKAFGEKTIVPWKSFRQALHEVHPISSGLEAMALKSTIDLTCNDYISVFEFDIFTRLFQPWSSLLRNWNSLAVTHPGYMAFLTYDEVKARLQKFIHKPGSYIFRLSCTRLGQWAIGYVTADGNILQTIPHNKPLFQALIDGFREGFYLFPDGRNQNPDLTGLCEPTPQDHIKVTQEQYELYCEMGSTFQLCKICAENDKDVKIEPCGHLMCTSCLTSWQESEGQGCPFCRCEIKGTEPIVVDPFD
Procedure, shortened: as §1

[3] = target: Cbl-b (Homo sapiens (Human), UniProt Q13191); experiment: Cbl-b LCK Ub TR-FRET assay (Cbl-b Lck HTRF); type: biochemical; details: for IC50: Cbl-b LCK Ub TR-FRET; for fold-selectivity (Cbl-b over C-cbl): ratio C-cbl Lck HTRF IC50 / Cbl-b Lck HTRF IC50
Chain of Cbl-b (Q13191 40-426): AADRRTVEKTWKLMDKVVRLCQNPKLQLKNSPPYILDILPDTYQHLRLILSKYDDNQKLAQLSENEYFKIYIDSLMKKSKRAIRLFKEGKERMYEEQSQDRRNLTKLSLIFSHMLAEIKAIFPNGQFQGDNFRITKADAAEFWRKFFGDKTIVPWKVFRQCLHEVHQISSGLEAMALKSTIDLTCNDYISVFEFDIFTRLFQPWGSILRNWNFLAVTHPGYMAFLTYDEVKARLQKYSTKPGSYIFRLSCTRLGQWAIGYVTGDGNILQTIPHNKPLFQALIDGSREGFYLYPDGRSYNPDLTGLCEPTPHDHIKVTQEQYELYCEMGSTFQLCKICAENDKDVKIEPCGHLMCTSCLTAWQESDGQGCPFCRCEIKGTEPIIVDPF
Procedure, shortened: (§2)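 Signal is read once the detection mix has stood 20 min at ambient temperature. Curves are anchored by DMSO as maximum and by omission of LCK as minimum.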

[4] = target: c-Cbl (Homo sapiens (Human), UniProt P22681); experiment: C-Cbl LCK Ub TR-FRET assay (C-cbl Lck HTRF); type: biochemical
Chain of c-Cbl (P22681 47-435): as the sequence (P22681 47-435) above
Procedure, shortened: as §2

Chain of Human Cbl-b (residues 40-426) (Q13191 40-426): as the sequence (Q13191 40-426) above

| Fold of selectivity [1] [×] | Kd [1] [µM] | Kd [2] [µM] | IC50 [3] [µM] | fold-selectivity (Cbl-b over C-cbl) [3] [x] | IC50 [4] [µM] | Structure (SMILES) |
| --- | --- | --- | --- | --- | --- | --- |
| 9.6 | 0.25 | 2.3 | 0.28 | 5.6 | 1.6 | Cn1cnnc1[C@@H](c1cccc(N2Cc3c(Cl)cc(CNC4(C)CCC4)cc3C2=O)c1)[C@H]1C[C@H](F)C1 (single isomer, unassigned) [Compound 318] |
| 8.0 | 0.0064 | 0.053 | 0.012 | 3.5 | 0.041 | Cn1cnnc1[C@H](c1cccc(N2Cc3c(Cl)cc(CNC4(C)CCC4)cc3C2=O)c1)[C@H]1C[C@@H](F)C1 (single isomer, unassigned) [Compound 319] |
| 5.5 | 0.0004 | 0.0022 | 0.0056 | 1.3 | 0.0075 | Cn1cnnc1[C@H](c1cccc(N2Cc3c(Cl)cc(CNC4(C)CCC4)cc3C2=O)c1)[C@H]1C[C@H](F)C1 (single isomer, unassigned) [Compound 320] |
| 2.4 | 0.0005 | 0.0012 | 0.0056 | 1.2 | 0.0066 | Cn1cnnc1[C@@H](c1cccc(N2Cc3c(cc(CNC4(C)CCC4)cc3C(F)(F)F)C2=O)c1)C1CC1 (single isomer, unassigned) [Compound 342] |
| 6.4 | 0.44 | 2.8 | 0.29 | 2.1 | 0.61 | Cn1cnnc1[C@H](c1cccc(N2Cc3c(cc(CNC4(C)CCC4)cc3C(F)(F)F)C2=O)c1)C1CC1 (single isomer, unassigned) [Compound 343] |
| 8.4 | 0.075 | 0.63 | 0.14 | 3.5 | 0.5 | Cn1nnnc1[C@@H](c1cccc(N2Cc3c(cc(CNC4(C)CCC4)cc3C(F)(F)F)C2=O)c1)C1COC1 (single isomer, unassigned) [Compound 348] |
| 11 | 0.019 | 0.21 | 0.029 | 6.1 | 0.18 | Cn1cnnc1C(c1cccc(N2Cc3c(cc(CNC4(C)CCC4)cc3C(F)(F)F)C2=O)c1)[C@H]1C[C@H](Cl)C1 (single isomer, unassigned) [Compound 356] |
| 5.5 | 0.0004 | 0.0022 | 0.0052 | 1.4 | 0.0071 | Cn1cnnc1C(c1cccc(N2Cc3c(cc(CNC4(C)CCC4)cc3C(F)(F)F)C2=O)c1)[C@H]1C[C@@H](Cl)C1 (single isomer, unassigned) [Compound 357] |
| 21 | 0.0029 | 0.059 | 0.006 | 6.3 | 0.038 | Cn1cnnc1C(c1cccc(N2Cc3c(cc(CNC4(C)CCC4)cc3C(F)(F)F)C2=O)c1)[C@H]1C[C@@H](CC#N)C1 (single isomer, unassigned) [Compound 362] |

Further lines, the compound ahead of its results:

| Structure (SMILES) | Fold of selectivity [1] [×] | Kd [1] [µM] | Kd [2] [µM] | IC50 [3] [µM] | fold-selectivity (Cbl-b over C-cbl) [3] [x] | IC50 [4] [µM] |
| --- | --- | --- | --- | --- | --- | --- |
| C[C@@H](NC1(C)CCC1)c1cc(Cl)c2c(c1)C(=O)N(c1cccc([C@]3(c4nncn4C)C[C@H](F)C3)c1)C2 (single isomer, unassigned) [Compound 311] | 2.5 | 0.0001 | 0.00025 | 0.004 | 1.1 | 0.0043 |
| C[C@H](NC1(C)CCC1)c1cc(Cl)c2c(c1)C(=O)N(c1cccc([C@]3(c4nncn4C)C[C@H](F)C3)c1)C2 (single isomer, unassigned) [Compound 312] | 14 | 0.002 | 0.028 | 0.0078 | 3.5 | 0.027 |
| CC[C@@H](NC1(C)CCC1)c1cc2c(c(C(F)(F)F)c1)CN(c1cccc([C@@H](c3nncn3C)C3COC3)c1)C2=O (single isomer, unassigned) [Compound 316] | 7.5 | 0.17 | 1.3 | 0.27 | 11 | 3.1 |
| Cc1cc([C@@H](c2nncn2C)C2COC2)cc(N2Cc3c(cc(CNC4(C)CCC4)cc3C(F)(F)F)C2=O)c1 (single isomer, unassigned) [Compound 333] | 2.2 | 0.026 | 0.056 | 0.039 | 1.0 | 0.041 |
| COc1cc([C@@H](c2nncn2C)C2COC2)cc(N2Cc3c(cc(CNC4(C)CCC4)cc3C(F)(F)F)C2=O)c1 (single isomer, unassigned) [Compound 339] | 2.5 | 0.0017 | 0.0042 | 0.0056 | 1.1 | 0.0063 |
| Cn1cnnc1[C@H](c1cccc(N2Cc3c(cc(CNC4(C)CCC4)cc3C(F)(F)F)C2=O)c1)n1ccnc1 (single isomer, unassigned) [Compound 345] | 3 | 1.3 | 4.1 | 2.4 | 4.4 | 11 |
| Cn1cnnc1C1(c2cccc(N3Cc4c(cc(CNC5(C)CCC5)cc4C(F)(F)F)C3=O)c2)CC(OC(F)(F)F)C1 (single isomer, unassigned) [Compound 351, 2-(3-((1r,3r)-1-(4-methyl-4H-1,2,4-triazol-3-yl)-3-(trifluoromethoxy)cyclobutyl)phenyl)-6-(((1-methylcyclobutyl)amino)methyl)-4-(trifluoromethyl)isoindolin-1-one] | 16 | 0.0012 | 0.019 | 0.0064 | 6.4 | 0.02 |
| Cn1ccnc1[C@@H](c1cccc(N2Cc3c(cc(CNC4(C)CCC4)cc3C(F)(F)F)C2=O)c1)C1COC1 (single isomer, unassigned) [Compound 352] | 7.6 | 0.034 | 0.27 | 0.069 | 4.1 | 0.28 |
| CC[C@@H](c1cccc(N2Cc3c(Cl)cc(CNC4(C)CCC4)cc3C2=O)c1)c1nncn1C (single isomer, unassigned) [Compound 359] | 2.1 | 0.0004 | 0.00082 | 0.0048 | 0.85 | 0.0041 |
| CO[C@H]1C[C@](c2cccc(N3Cc4c(cc([C@H](N)C(C)(C)C)cc4C(F)(F)F)C3=O)c2)(c2nncn2C)C1 (single isomer, unassigned) [Compound 360] | 10 | 0.084 | 0.84 | 0.092 | 6.4 | 0.59 |
| CO[C@H]1C[C@](c2cccc(N3Cc4c(cc([C@@H](N)C(C)(C)C)cc4C(F)(F)F)C3=O)c2)(c2nncn2C)C1 (single isomer, unassigned) [Compound 361] | 21 | 0.004 | 0.084 | 0.0081 | 4.4 | 0.036 |
